Measurements taken from US5254731A, “Substituted 3,4-dihydronaphthalenes, pharmaceutical compositions containing them, and preparation processes” (Gruenenthal GmbH, priority 1991, dated 1993).

Legend:
[1] = system: endotoxin/galactosamine-induced hepatitis; experiment: endotoxin/galactosamine-induced hepatitis in mice (septic shock model); assay type: in vivo, mouse; details: for shock mortality: endotoxin/galactosamine-induced hepatitis model; for Inhibition of increase of the enzymatic activity of GPT / Inhibition of increase of the enzymatic activity of SDH: i.p., 10 mg/kg for each of five administrations, serum, 8 hours after endotoxin
Method: To evaluate the effects of compounds according to the invention on septic shock, endotoxin/galactosamine-induced hepatitis in mice was used as test model. […] Intraperitoneal administration of compounds of formula I 30 minutes before, simultaneously with, and 2, 4 and 6 hours after administration of the endotoxin inhibits the hepatitis-induced increase of the activities of these enzymes in the serum. On administration of compounds of formula I in doses of 10 mg/kg for each of the five administrations, the following percentage inhibitions of the increase of the enzymatic activities of GPT and SDH were achieved (the increase of enzymatic activities in control animals who had been treated five times with a solution containing 1% by weight of sodium carboxymethylcellulose was set at 100%): […]

[2] = system: bronchoconstriction elicited by ovalbumin; experiment: anti-asthmatic effect: ovalbumin-elicited bronchoconstriction in anesthetized, passively sensitized guinea pigs; assay type: in vivo, guinea pig; details: Cavia porcellus, 1 h; oral, 60 minutes before ovalbumin 0.2 mg/kg i.v.; read-out: ED40 (40% average inhibition of the bronchoconstriction elicited by ovalbumin)
Method: The anti-asthmatic effect of compounds according to the invention was tested in anesthetized and ventilated guinea pigs. To induce an asthmatic reaction, the animals were passively sensitized by a single intraperitoneal injection of anti-ovalbumin serum. After 48 hours the asthmatic reaction was elicited by intravenous challenge with 0.2 mg/kg of ovalbumin. The immediately resulting bronchoconstriction was measured as an increase in intratracheal pressure. Effects caused by histamine, serotonin and sympathic counterreaction were eliminated by intravenous pretreatment with 2.15 mg/kg of mepyramine, 46.4 mg/kg of propranolol, 4.64 mg/kg of atropine and 1 mg/kg of methysergide, all administered 5 minutes before challenge. Substituted 3,4-dihydronaphthalenes were orally administered 60 minutes before the administration of ovalbumin.

[3] = comparative compounds of formula A, aforementioned test model
[4] = comparative compound, aforementioned test model

Row | SMILES | Inhibition of increase of the enzymatic activity of GPT [1] [%] | Inhibition of increase of the enzymatic activity of SDH [1] [%] | ED40 [2] [mg/kg] | also measured
1 | CC(=O)N(O)CC1=Cc2ccc(OCc3ccccc3)cc2CC1 [Example A2, reference compound] |  |  |  | inhibition of GPT [1, 3]: 16%; inhibition of SDH [1, 3]: 32%; shock mortality [1]: no detectable influence on shock mortality
2 | COc1ccc2c(c1)CCC(CN(O)C(C)=O)=C2 [Example 1, N-[(6-methoxy-3,4-dihydronaphth-2-yl)methyl]acetohydroxamic acid] | 54 | 41 |  | 
3 | COc1ccc2c(c1)CCC(C(C)N(O)C(C)=O)=C2 (stereo not drawn) [Example 2, N-[1-(6-methoxy-3,4-dihydronaphth-2-yl)ethyl]acetohydroxamic acid] | 56 | 69 |  | 
4 | NC(=O)N(O)CC1=Cc2ccc(OCc3ccccc3)cc2CC1 [Example A1, reference compound] |  |  |  | inhibition of GPT (in words) [1, 4]: did not cause either an inhibition of GPT; inhibition of SDH (in words) [1, 4]: did not cause either an inhibition of GPT and SDH; shock mortality [1]: did not cause either an inhibition of GPT and SDH or a decrease in the shock mortality
5 | CC(C)Oc1ccc2c(c1)CCC(CN(O)C(N)=O)=C2 [Example 6e, N-hydroxy-N-[(6-isopropoxy-3,4-dihydronaphth-2-yl)methyl]urea] |  |  | 368 | 
6 | COc1ccc2c(c1)CCC(CN(O)C(N)=O)=C2 [Example 3, N-hydroxy-N-[(6-methoxy-3,4-dihydronaphth-2-yl)methyl]urea] | 78 | 57 | 33.5 | 
7 | CC(=O)N(O)CC1=Cc2ccc(OC3CCCC3)cc2CC1 [Example 6a, N-[(6-cyclopentyloxy 3,4-dihydronaphth 2 yl)methyl]acetohydroxamic acid] |  |  | 275 | 
